Experimental findings from BindingDB's records for doi:10.1016/s0960-894x(01)00038-5 (Glaxosmithkline, 2001) are described below.

For the experiment, the target named is Lipoprotein-associated phospholipase A2 (Rattus norvegicus). Briefly: Concentration required for inhibition ofLipoprotein associated phospholipase A2 in rat at dose 2 umol/kg/h.

The structures appear in SMILES notation.

A word on the IC50: it is the concentration needed to halve the response being measured. As for `CCCCCCCCCCCCN(C)C(=O)Cn1cc(Cc2cnc(=O)n(CC(=O)O)c2)c(=O)nc1SCc1ccc(F)cc1` [{5-[1-[(Dodecyl-methyl-carbamoyl)-methyl]-2-(4-fluoro-benzylsulfanyl)-4-oxo-1,4-dihydro-pyrimidin-5-ylmethyl]-2-oxo-2H-pyrimidin-1-yl}-acetic acid], it took 533 nM to reach half-maximal inhibition (IC50).
